In patent US11780893B2, “Kv1.3 blockers” (Zealand Pharma A/S, priority 2019, dated 2023):
Read-outs that look alike come from different tables or passages of the source. Bridge positions count the residues as written; N and C are the ends. Square brackets hold non-standard residues; d marks the D form. Peptide text beside a SMILES is read from it. Nle = CCCC[C@H](N)C(=O)O

Assays:
[1] = target: T1, Kv1.1 (Homo sapiens, UniProt Q09470); test: cell-based; details: for Selectivity Kv1.1/Kv1.3: ratio IC50[Kv1.1]/IC50[Kv1.3]
T1 construct: expressed in transfected cells; host or cells: Chinese Hamster Ovary (CHO)

[2] = target: T2, Kv1.3 (Homo sapiens, UniProt P22001); test: cell-based
T2 construct: expressed in transfected cells; host or cells: Chinese Hamster Ovary (CHO)

[3] = target: T3, Kv1.2 (Homo sapiens, UniProt P16389); test: cell-based
T3 construct: expressed in transfected cells; host or cells: Chinese Hamster Ovary (CHO)

[4] = target: Rat whole blood (Rattus norvegicus, UniProt P15384)
[5] = target: T4, human Kv1.3 voltage-gated K+ channel (Homo sapiens, UniProt P22001); test: cell-based
T4 construct: host or cells: CHO-DUKX

[6] = target: T5, Kv1.6 (Homo sapiens, UniProt P17658); test: cell-based; details: for Selectivity Kv1.6/Kv1.3: ratio IC50[Kv1.6]/IC50[Kv1.3]
T5 construct: expressed in transfected cells; host or cells: Chinese Hamster Ovary (CHO)

[7] = CHO cells, whole-cell patch clamp, read-out: Potency IC50 (nM) Kv1.1
[8] = CHO cells, whole-cell patch clamp, read-out: Potency IC50 (nM) Kv1.3
[9] = CHO cells, whole-cell patch clamp, read-out: Potency IC50 (nM) Kv1.2
[10] = inhibition of thallium flux, CHO-DUKX cells with human Kv1.3, read-out: IC50
[11] = CHO cells, whole-cell patch clamp, read-out: Potency IC50 (nM) Kv1.6

T5 sequence (P17658 whole entry): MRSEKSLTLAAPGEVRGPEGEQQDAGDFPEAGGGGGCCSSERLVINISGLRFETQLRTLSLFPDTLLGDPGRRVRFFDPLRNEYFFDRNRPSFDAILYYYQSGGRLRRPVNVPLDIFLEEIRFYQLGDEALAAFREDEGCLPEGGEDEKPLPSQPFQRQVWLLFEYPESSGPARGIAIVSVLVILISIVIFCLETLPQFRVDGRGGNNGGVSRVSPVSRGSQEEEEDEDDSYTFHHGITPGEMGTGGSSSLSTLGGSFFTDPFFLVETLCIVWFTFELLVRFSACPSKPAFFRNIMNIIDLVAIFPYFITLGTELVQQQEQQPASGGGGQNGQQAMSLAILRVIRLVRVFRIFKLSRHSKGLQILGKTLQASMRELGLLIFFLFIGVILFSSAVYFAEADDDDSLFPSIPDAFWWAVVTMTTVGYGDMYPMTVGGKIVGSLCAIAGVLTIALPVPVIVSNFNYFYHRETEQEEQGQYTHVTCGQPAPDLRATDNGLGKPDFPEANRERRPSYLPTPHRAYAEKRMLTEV
T1 sequence (Q09470 whole entry): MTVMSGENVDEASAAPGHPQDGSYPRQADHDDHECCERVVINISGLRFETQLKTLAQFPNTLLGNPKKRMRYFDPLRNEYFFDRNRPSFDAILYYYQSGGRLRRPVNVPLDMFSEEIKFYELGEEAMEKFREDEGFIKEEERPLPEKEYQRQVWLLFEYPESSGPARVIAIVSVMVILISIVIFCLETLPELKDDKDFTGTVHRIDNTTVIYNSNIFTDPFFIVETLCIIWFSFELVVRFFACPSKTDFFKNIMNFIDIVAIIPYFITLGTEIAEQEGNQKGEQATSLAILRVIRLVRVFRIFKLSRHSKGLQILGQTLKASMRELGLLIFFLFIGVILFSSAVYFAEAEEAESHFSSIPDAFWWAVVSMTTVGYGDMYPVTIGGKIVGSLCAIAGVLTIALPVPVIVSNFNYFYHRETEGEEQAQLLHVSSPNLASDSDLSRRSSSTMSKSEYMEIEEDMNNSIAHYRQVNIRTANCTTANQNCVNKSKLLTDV
T2 sequence (P22001 whole entry): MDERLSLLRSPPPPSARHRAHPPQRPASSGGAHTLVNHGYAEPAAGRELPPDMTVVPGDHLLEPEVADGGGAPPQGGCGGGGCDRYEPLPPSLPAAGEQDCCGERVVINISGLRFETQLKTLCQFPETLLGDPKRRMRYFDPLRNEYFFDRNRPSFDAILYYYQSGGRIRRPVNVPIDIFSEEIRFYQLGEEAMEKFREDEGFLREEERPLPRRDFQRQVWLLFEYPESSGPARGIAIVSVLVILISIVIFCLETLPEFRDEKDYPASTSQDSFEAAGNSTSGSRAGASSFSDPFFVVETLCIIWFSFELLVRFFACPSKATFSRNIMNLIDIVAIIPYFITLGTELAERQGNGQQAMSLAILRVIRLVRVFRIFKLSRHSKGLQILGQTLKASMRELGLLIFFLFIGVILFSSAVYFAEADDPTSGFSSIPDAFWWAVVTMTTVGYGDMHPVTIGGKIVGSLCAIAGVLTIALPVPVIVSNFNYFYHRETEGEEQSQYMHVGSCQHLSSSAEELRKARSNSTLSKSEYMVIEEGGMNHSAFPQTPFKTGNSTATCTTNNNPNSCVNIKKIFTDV
T4 sequence (P22001 whole entry): as above
T3 sequence (P16389 whole entry): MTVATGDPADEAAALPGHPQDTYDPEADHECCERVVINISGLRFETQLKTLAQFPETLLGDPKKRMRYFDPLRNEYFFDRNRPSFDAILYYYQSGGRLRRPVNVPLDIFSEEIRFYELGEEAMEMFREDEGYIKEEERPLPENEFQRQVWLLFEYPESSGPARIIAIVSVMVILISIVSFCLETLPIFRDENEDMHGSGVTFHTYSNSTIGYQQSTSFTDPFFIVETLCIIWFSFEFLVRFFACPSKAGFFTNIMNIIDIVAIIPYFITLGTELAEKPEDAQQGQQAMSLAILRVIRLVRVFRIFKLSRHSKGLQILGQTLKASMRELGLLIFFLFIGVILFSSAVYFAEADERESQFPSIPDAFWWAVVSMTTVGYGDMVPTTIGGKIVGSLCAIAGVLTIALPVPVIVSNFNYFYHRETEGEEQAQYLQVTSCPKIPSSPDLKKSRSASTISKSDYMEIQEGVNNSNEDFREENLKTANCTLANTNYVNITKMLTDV
Sequence of Rat whole blood (P15384 whole entry): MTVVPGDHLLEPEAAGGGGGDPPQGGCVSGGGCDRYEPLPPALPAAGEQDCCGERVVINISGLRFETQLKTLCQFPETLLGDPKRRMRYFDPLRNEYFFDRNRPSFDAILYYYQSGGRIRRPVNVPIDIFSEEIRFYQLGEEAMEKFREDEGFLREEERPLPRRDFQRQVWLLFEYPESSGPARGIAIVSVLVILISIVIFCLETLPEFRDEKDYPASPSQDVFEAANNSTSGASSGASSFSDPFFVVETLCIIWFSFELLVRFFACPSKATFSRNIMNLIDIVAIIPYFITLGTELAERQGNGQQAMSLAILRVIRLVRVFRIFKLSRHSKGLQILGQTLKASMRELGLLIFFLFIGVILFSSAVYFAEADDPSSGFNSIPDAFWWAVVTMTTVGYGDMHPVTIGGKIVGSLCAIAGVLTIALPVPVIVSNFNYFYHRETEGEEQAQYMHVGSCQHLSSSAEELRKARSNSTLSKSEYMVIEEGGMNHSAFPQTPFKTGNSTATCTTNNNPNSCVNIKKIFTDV

## CC[C@H](C)[C@@H]1NC(=O)[C@H](C)NC(=O)[C@H](CCCCN)NC(=O)[C@H](CCCCN)NC(=O)[C@@H]2CSSC[C@@H](C(=O)N[C@@H](Cc3ccc(O)cc3)C(=O)N3CCC[C@H]3C(=O)N[C@@H](CCCNC(=N)N)C(N)=O)NC(=O)[C@H](CCCCN)NC(=O)[C@@H]3CSSC[C@H](NC(=O)[C@H](CCC(=O)O)NC(=O)[C@H](C(C)C)NC(=O)[C@H](CO)NC(=O)[C@H](C)NC(=O)[C@H](CO)NC(=O)[C@@H](NC(=O)[C@H](CCCNC(=N)N)NC(=O)[C@H](CCSC)NC(=O)[C@H](CC(=O)O)NC(=O)[C@H](CCSC)NC(=O)[C@@H](N)CC(N)=O)CSSC[C@H](NC(=O)[C@H](CCCCN)NC(=O)CNC(=O)[C@H](Cc4ccccc4)NC(=O)[C@H]([C@@H](C)CC)NC(=O)[C@H](CO)NC(=O)CNC1=O)C(=O)N[C@@H](CCSC)C(=O)N[C@@H](CC(N)=O)C(=O)N[C@@H](CCCCN)C(=O)N[C@@H](CCCCN)C(=O)N3)C(=O)N[C@@H](CCCCN)C(=O)N[C@@H](CCC(N)=O)C(=O)N[C@@H](CCCCN)C(=O)N2 [Compound 19] (H-NMDMRCSASVECKQKCKKAIGSIFGKCMNKKCKCYPR-NH2; disulfide 6-27, 12-32, 16-34)
[1]; [7]
  IC50: > 3000 nM
[1]
  Selectivity Kv1.1/Kv1.3: >13500
[2]; [8]
  IC50: 0.22 nM
[3]; [9]
  IC50: 45 nM
[4]
  IC50: ≤ 1 nM
[5]; [10]
  IC50: 0.12 nM
[6]; [11]
  IC50: 435 nM

## CC[C@H](C)[C@@H]1NC(=O)[C@H](C)NC(=O)[C@H](CCCCN)NC(=O)[C@H](CC(C)C)NC(=O)[C@@H]2CSSC[C@@H](C(=O)N[C@@H](Cc3ccc(O)cc3)C(=O)N3CCC[C@H]3C(=O)N[C@@H](CCCNC(=N)N)C(N)=O)NC(=O)[C@H](CCCCN)NC(=O)[C@@H]3CSSC[C@H](NC(=O)[C@H](CCC(=O)O)NC(=O)[C@H](C(C)C)NC(=O)[C@H](CO)NC(=O)[C@H](C)NC(=O)[C@H](CO)NC(=O)[C@@H](NC(=O)[C@H](CCCNC(=N)N)NC(=O)[C@H](CCSC)NC(=O)[C@H](CC(=O)O)NC(=O)[C@H](CCSC)NC(=O)[C@@H](N)CC(N)=O)CSSC[C@H](NC(=O)[C@H](CCCCN)NC(=O)CNC(=O)[C@H](Cc4ccccc4)NC(=O)[C@H]([C@@H](C)CC)NC(=O)[C@H](CO)NC(=O)[C@H](CCCNC(=N)N)NC1=O)C(=O)N[C@@H](CCSC)C(=O)N[C@@H](CC(N)=O)C(=O)N[C@@H](CCCCN)C(=O)N[C@@H](CCCCN)C(=O)N3)C(=O)N[C@@H](CCCCN)C(=O)N[C@@H](CCC(N)=O)C(=O)N[C@@H](CCCCN)C(=O)N2 [Compound 21] (H-NMDMRCSASVECKQKCLKAIRSIFGKCMNKKCKCYPR-NH2; disulfide 6-27, 12-32, 16-34)
[1]; [7]
  IC50: > 3000 nM
[1]
  Selectivity Kv1.1/Kv1.3: >13700
[2]; [8]
  IC50: 0.22 nM
[3]; [9]
  IC50: 57 nM
[4]
  IC50: ≤ 1 nM
[5]; [10]
  IC50: 0.12 nM
[6]; [11]
  IC50: 626 nM

## CCCC[C@@H]1NC(=O)[C@@H]2CSSC[C@H](NC(=O)[C@H](CCCNC(=N)N)NC(=O)[C@H](CCCC)NC(=O)[C@H](CCC(=O)O)NC(=O)[C@@H](NC(=O)[C@@H]3CCCN3)[C@@H](C)CC)C(=O)N[C@@H](CO)C(=O)N[C@@H](C)C(=O)N[C@@H](CO)C(=O)N[C@@H](C(C)C)C(=O)N[C@@H](CCC(=O)O)C(=O)N[C@H]3CSSC[C@H](NC(=O)[C@H](CCCCN)NC(=O)[C@H](CCCCN)NC(=O)[C@H](CC(N)=O)NC1=O)C(=O)N[C@@H](CCCCN)C(=O)N[C@H](C(=O)N[C@@H](Cc1ccc(O)cc1)C(=O)N1CCC[C@H]1C(=O)N[C@@H](CCCNC(=N)N)C(=O)O)CSSC[C@H](NC(=O)[C@H](CCCCN)NC(=O)[C@H](CCC(N)=O)NC(=O)[C@H](CCCCN)NC3=O)C(=O)N[C@@H](CC(C)C)C(=O)N[C@@H](CCCCN)C(=O)N[C@@H](C)C(=O)N[C@@H]([C@@H](C)CC)C(=O)NCC(=O)N[C@@H](CO)C(=O)N[C@@H]([C@@H](C)CC)C(=O)N[C@@H](Cc1ccccc1)C(=O)NCC(=O)N[C@@H](CCCCN)C(=O)N2 [Compound 96] (H-PIE[Nle]RCSASVECKQKCLKAIGSIFGKC[Nle]NKKCKCYPR-OH; disulfide 6-27, 12-32, 16-34)
[1]
  IC50: > 3000 nM
[2]
  IC50: 0.39 nM
[3]
  IC50: 1760 nM
[5]
  IC50: 0.15 nM
[6]
  IC50: > 3000 nM

## CCCC[C@@H]1NC(=O)[C@@H]2CSSC[C@H](N)C(=O)N[C@@H](CO)C(=O)N[C@@H](C)C(=O)N[C@@H](CO)C(=O)N[C@@H](C(C)C)C(=O)N[C@@H](CCC(=O)O)C(=O)N[C@H]3CSSC[C@H](NC(=O)[C@H](CCCCN)NC(=O)[C@H](CCCCN)NC(=O)[C@H](CC(N)=O)NC1=O)C(=O)N[C@@H](CCCCN)C(=O)N[C@H](C(=O)N[C@@H](Cc1ccc(O)cc1)C(=O)N1CCC[C@H]1C(=O)N[C@@H](CCCNC(=N)N)C(N)=O)CSSC[C@H](NC(=O)[C@H](CCCCN)NC(=O)[C@H](CCC(N)=O)NC(=O)[C@H](CCCCN)NC3=O)C(=O)N[C@@H](CC(C)C)C(=O)N[C@@H](CCCCN)C(=O)N[C@@H](C)C(=O)N[C@@H]([C@@H](C)CC)C(=O)NCC(=O)N[C@@H](CO)C(=O)N[C@@H]([C@@H](C)CC)C(=O)N[C@@H](Cc1ccccc1)C(=O)NCC(=O)N[C@@H](CCCCN)C(=O)N2 [Compound 104] (H-CSASVECKQKCLKAIGSIFGKC[Nle]NKKCKCYPR-NH2; disulfide 1-22, 7-27, 11-29)
[1]; [7]
  IC50: > 3000 nM
[1]
  Selectivity Kv1.1/Kv1.3: >7000
[2]; [8]
  IC50: 0.43 nM
[3]; [9]
  IC50: > 3000 nM
[3]; ratio IC50[Kv1.2]/IC50[Kv1.3]
  Selectivity Kv1.2/Kv1.3: >7000
[5]; [10]
  IC50: 0.12 nM
[6]; [11]
  IC50: > 3000 nM
[6]
  Selectivity Kv1.6/Kv1.3: >7000

## CC[C@H](C)[C@@H]1NC(=O)[C@H](C)NC(=O)[C@H](CCCCN)NC(=O)[C@H](CC(C)C)NC(=O)[C@@H]2CSSC[C@@H](C(=O)N[C@@H](Cc3ccc(O)cc3)C(=O)N3CCC[C@H]3C(=O)N[C@@H](CCCNC(=N)N)C(=O)O)NC(=O)[C@H](CCCCN)NC(=O)[C@@H]3CSSC[C@H](NC(=O)[C@H](CCC(=O)O)NC(=O)[C@H](C(C)C)NC(=O)[C@H](CO)NC(=O)[C@H](C)NC(=O)[C@H](CO)NC(=O)[C@@H](N)CSSC[C@H](NC(=O)[C@H](CCCCN)NC(=O)CNC(=O)[C@H](Cc4ccccc4)NC(=O)[C@H]([C@@H](C)CC)NC(=O)[C@H](CO)NC(=O)CNC1=O)C(=O)N[C@@H](CCSC)C(=O)N[C@@H](CC(N)=O)C(=O)N[C@@H](CCCCN)C(=O)N[C@@H](CCCCN)C(=O)N3)C(=O)N[C@@H](CCCCN)C(=O)N[C@@H](CCC(N)=O)C(=O)N[C@@H](CCCCN)C(=O)N2 [Compound 117] (H-CSASVECKQKCLKAIGSIFGKCMNKKCKCYPR-OH; disulfide 1-22, 7-27, 11-29)
[1]; [7]
  IC50: > 3000 nM
[1]
  Selectivity Kv1.1/Kv1.3: >1400
[2]; [8]
  IC50: 2.09 nM
[3]; [9]
  IC50: 1830 nM
[5]; [10]
  IC50: 1.5 nM
[6]; [11]
  IC50: > 3000 nM
[6]
  Selectivity Kv1.6/Kv1.3: >1400
